Experimental data reported in ChEMBL document CHEMBL1201862, “PubChem BioAssay data set” (2004).
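Grown in 96-well plates, cells were treated for 48 hours with each compound at five concentrations. Insufficient inhibition: endpoint recorded as highest concentration tested. Abbreviation: GI50, concentration required for 50% inhibition of growth.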 Activity calls are given as the source filed them. Rule as the data show it: active = GI50 up to about 1.1 µM and inactive = higher.

What was measured:
Assay in all cases: inhibition of tumour cell growth, NCI panel, 48 h
T47D = tested on: T47D
MDA-N = tested on: MDA-N
LXFL 529 = tested on: LXFL 529
M19-MEL = tested on: M19-MEL
XF498 = tested on: XF498
DMS-114 = tested on: DMS-114
DMS-273 = tested on: DMS-273
HOP-18 = tested on: HOP-18

Structure (SMILES)	GI50 (T47D)	GI50 (MDA-N)	other results
Cc1c(/C=N\NC(=S)NCCNC(=S)N/N=C\c2c(C)n(C)n(-c3ccccc3)c2=O)c(=O)n(-c2ccccc2)n1C	> 100 µM (inactive)		
Cc1ccc(F)cc1NC(=O)O/N=C(\Cl)C(C)C	4.73 µM (inactive)	5.62 µM (inactive)	
Cc1ccc(C(=O)/C(C#N)=C/Nc2c(C)n(C)n(-c3ccccc3)c2=O)cc1	> 100 µM (inactive)	> 100 µM (inactive)	
CC(C)(C)NC(=O)CCC1C(C(=O)NC(C)(C)C)C2(Cl)C(Cl)=C(Cl)C1(Cl)C2(Cl)Cl (centres undefined)	> 100 µM (inactive)	> 100 µM (inactive)	
CCNC(=S)N/N=C1\C(=O)Nc2ccc([N+](=O)[O-])cc21	31.6 µM (inactive)	> 100 µM (inactive)	
CN(C)/N=C(\CCN1CCCC1)CC(c1ccccc1)c1c(O)c2ccccc2oc1=O (centres undefined)			GI50 (LXFL 529): > 100 µM (inactive); GI50 (M19-MEL): > 100 µM (inactive); GI50 (XF498): > 100 µM (inactive)
COn1cc(CO)c2ccccc21	30.8 µM (inactive)	97.5 µM (inactive)	
CS/C(=N\C(=S)N(C)C)N(c1ccccc1)c1nc(N(C)C)s[s+]1			GI50 (DMS-114): 0.708 µM (active); GI50 (DMS-273): 3.52 µM (inactive); GI50 (LXFL 529): 3.87 µM (inactive); GI50 (M19-MEL): 3.18 µM (inactive)
COC1/C(=C\c2ccccc2I)c2ccccc2N1C(C)=O (centres undefined)			GI50 (DMS-114): 17 µM (inactive); GI50 (DMS-273): 11.7 µM (inactive); GI50 (HOP-18): 19 µM (inactive); GI50 (LXFL 529): 12.9 µM (inactive); GI50 (M19-MEL): 19.6 µM (inactive)
CN(C)CCNC1=Nc2ccccc2C(=S)N2CSCC12 (centres undefined)	> 100 µM (inactive)	> 100 µM (inactive)	
COc1ccc2[nH]cc(CCNC(=O)[C@H](Cc3ccccc3)NC(=O)[C@@H](NCC(F)(F)F)C(C)C)c2c1		18.2 µM (inactive)	
C=CCC1(C(=O)OC)CCC/C(=N\O)C1 (centres undefined)	> 10 µM (inactive)	> 10 µM (inactive)	
COc1ccc2oc(=O)c(-c3cc4c(c(C)n3)c(=O)oc3ccc(OC)cc34)cc2c1	> 100 µM (inactive)	> 100 µM (inactive)	
N#Cc1nc(CCCN2C(=O)c3ccccc3C2=O)oc1N	> 100 µM (inactive)	> 100 µM (inactive)	
CCN(CC)CCCNc1nc(=O)[nH]c(C)c1C(=O)Nc1cccc2cc3ccccc3cc12	> 100 µM (inactive)	> 100 µM (inactive)	
C/C(=N\N=C(/S)N(C)C)c1cccnn1	0.916 µM (active)	0.752 µM (active)	
CN(CC(=O)Nc1ccccc1C(=O)O)c1ccccc1	> 100 µM (inactive)	> 100 µM (inactive)	
COc1ccc(NC(C)=O)c(C(=O)CCNC(C)=O)c1	> 100 µM (inactive)	> 100 µM (inactive)	
N/C(=N\Nc1nc2cc([N+](=O)[O-])ccc2o1)c1ccccn1	0.073 µM (active)	0.189 µM (active)	
COc1ccc(C(C#N)NCCCCCCNC(C#N)c2ccc(OC)cc2)cc1 (centres undefined)	> 100 µM (inactive)	> 100 µM (inactive)	
CCOC(=O)C1c2[nH]c3ccccc3c2CCN1C(=O)c1ccc(OC)o1 (centres undefined)	> 10 µM (inactive)	> 10 µM (inactive)	
Clc1ccc(-c2nc(-c3ccc(Cl)cc3)[s+]s2)cc1	> 100 µM (inactive)	> 100 µM (inactive)	
C#C[C@]1(O)CC[C@H]2[C@@H]3CCC4=C/C(=N/NC(=O)c5cccc6cc7ccccc7nc56)CC[C@@H]4[C@H]3CC[C@@]21CC	21 µM (inactive)	93.3 µM (inactive)	
COC(=O)C(COC(C)=O)NC(=O)/C=C/c1ccc(O)c(OC(C)=O)c1 (centres undefined)	31.2 µM (inactive)	> 100 µM (inactive)	
O=C(/C=C1\C[C@H]2C=Nc3ccccc3C(=O)N2C1)NCCCCCNC(=O)/C=C1\C[C@H]2C=Nc3ccccc3C(=O)N2C1	2.53 µM (inactive)	7 µM (inactive)	
CCc1ccccc1NC(=O)CCc1n[nH]c(=S)o1			GI50 (DMS-114): > 100 µM (inactive); GI50 (DMS-273): > 100 µM (inactive); GI50 (HOP-18): > 100 µM (inactive); GI50 (LXFL 529): > 100 µM (inactive); GI50 (M19-MEL): > 100 µM (inactive)
CC1OC=CC(=O)C1O (centres undefined)			GI50 (LXFL 529): > 100 µM (inactive); GI50 (M19-MEL): > 100 µM (inactive); GI50 (XF498): > 100 µM (inactive)

Structure (SMILES)	GI50 (T47D)	GI50 (MDA-N)	other results
CC(C)C(N)C(=O)NC(CCC(=O)NCCCCC(N)C(=O)NCCCNc1ccc([N+](=O)[O-])c2[nH]c3ccccc3c(=O)c12)C(N)=O (centres undefined)	> 100 µM (inactive)		
O=C1C(Cl)=C(N2C(=O)CCCC2=O)C(=O)c2ccccc21	22.9 µM (inactive)	17.2 µM (inactive)	
Cn1c(=O)c2c(nc3sc4c(n32)C(=O)c2c(O)ccc(O)c2C4=O)n(C)c1=O	2.43 µM (inactive)	1.86 µM (inactive)	
OCC(O)C(O)C(O)C(/C=N\Nc1ncnc2ccc(Br)cc12)=N/Nc1ncnc2ccc(Br)cc12 (centres undefined)	3.2 µM (inactive)	15.1 µM (inactive)	
CN1C(=O)C(O)C[C@@H]1c1ccc(F)cc1 (some centres undefined)	> 100 µM (inactive)	> 100 µM (inactive)	
O=C(O)COc1ccccc1C(=O)Nc1ccccc1			GI50 (DMS-273): > 100 µM (inactive); GI50 (LXFL 529): > 100 µM (inactive); GI50 (M19-MEL): > 100 µM (inactive); GI50 (XF498): > 100 µM (inactive)
COc1cc2c(cc1OCCCCCCCCN1C(=O)c3cccc4cccc(c34)C1=O)N=C[C@@H]1CCCN1C2=O	73.6 µM (inactive)		
CN(C)c1ccc(/C=C/c2ccc3ccccc3[n+]2C)cc1	1.63 µM (inactive)	2.03 µM (inactive)	
NCCSc1nc2ccccc2s1		38.3 µM (inactive)	
O=C(NCCCNCCN1C(=O)c2cccc3cc([N+](=O)[O-])cc(c23)C1=O)c1cc(-c2ccccc2)nc2ccccc12	8.07 µM (inactive)	1.53 µM (inactive)	
O=C(NNc1ccc([N+](=O)[O-])cc1[N+](=O)[O-])/C(O)=C\C(=O)c1ccccc1	15.6 µM (inactive)	27.9 µM (inactive)	
O=C(c1ccccc1)C1C[C@H]2CO[C@H](c3ccccc3)N2C1=O (some centres undefined)	> 100 µM (inactive)	> 100 µM (inactive)	
O=C1NCC2(CCNCC2)N1	> 100 µM (inactive)		
CN(C)Cc1cc(/N=N/c2c(Cl)cccc2Cl)ccc1O	42.6 µM (inactive)	> 100 µM (inactive)	
C[N+](C)(CCNC(=O)c1cccc2cc3ccccc3nc12)Cc1ccc([N+](=O)[O-])s1	> 25 µM (inactive)	> 25 µM (inactive)	
O=C1c2ccccc2C(=O)N1CCSCC(CO)SCCN1C(=O)c2ccccc2C1=O (centres undefined)	86.9 µM (inactive)	> 100 µM (inactive)	
COc1cc(C2c3cc4c(cc3OC(NCCO)C2C)OCO4)cc(OC)c1O (centres undefined)	18.2 µM (inactive)	1.61 µM (inactive)	
CC(C(O)c1ccccc1)C(O)(C(F)(F)F)C(F)(F)F (centres undefined)	> 100 µM (inactive)	> 100 µM (inactive)	
O=C(O)/C=C/c1ccncc1			GI50 (DMS-114): > 100 µM (inactive); GI50 (DMS-273): > 100 µM (inactive); GI50 (LXFL 529): > 100 µM (inactive); GI50 (M19-MEL): > 100 µM (inactive); GI50 (XF498): > 100 µM (inactive)
Cc1ccc(/C=C2/N/C(=N\N=C/c3ccccc3)NC2=O)cc1	28.7 µM (inactive)	28.2 µM (inactive)	
O=CNNC(=O)CSc1nc2ccc(I)cc2c(=O)n1Cc1ccccc1	33.4 µM (inactive)	32.3 µM (inactive)	
O=C(C[n+]1ccccc1)N/N=C(\C(=O)NC1=C(Cl)C(=O)c2ccccc2C1=O)c1c(O)c2ccc(O)cc2oc1=O	5.56 µM (inactive)		
C#C[C@]1(O)CC[C@H]2[C@@H]3CCC4=C/C(=N\OCCN(CC)CC)CC[C@]4(C)[C@H]3CC[C@@]21C	6.3 µM (inactive)	2.18 µM (inactive)	
CCC1(N)C(=O)OCc2c1cc1n(c2=O)Cc2cc3ccccc3nc2-1 (centres undefined)	2.35 µM (inactive)	17.7 µM (inactive)	
Cc1c(NC(=S)NN)c(=O)n(-c2ccccc2)n1C	> 100 µM (inactive)	> 100 µM (inactive)	
C/C=C1\CC(C(=O)OCC)CCCCCCC1=O (centres undefined)	> 100 µM (inactive)	> 100 µM (inactive)	
